# Columns and labels:
# [1] = tested on: MDA-MB-231 breast cancer Xenograft; assay: MDA-MB-231 breast cancer Xenograft model, AC-regimen alone and PLAG co-treatment; assay type: in vivo, mouse
# Experimental: MDA-MB-231 breast cancer Xenograft model was used. Tumor growth was evaluated in the AC-regimen alone and PLAG co-treated animals. AC-regimen was delivered via IP injection twice a week with dose of 2/20 and 5/50 mph (Doxorubicin/Cyclophosphamide), and PLAG was daily administered with 100 and 250 mpk. Tumor growth was calculated with 3 day intervals. Neutrophil chemotaxis related chemokines, CXCL1/2/8 and circulating neutrophils were also evaluated with 2 week internal. Expression of apoptosis molecular markers, Bax/Bak and tumor-infiltrating neutrophil (TIN) in the tumor lesion was analyzed by immunohistochemistry (IHC).
# LLC-1 lung carcinoma = assay: LLC-1 syngeneic model, PLAG with or without aPD-1; assay type: in vivo, C57BL/6 mice
# Text: To investigate the enhanced anti tumor effect of the anti-PD-1 antibody (aPD-1 with the addition of 1-palmitoyl-2-linoleoyk-3-acetyl-rac-glycerol (PLAG), the syngeneic model was used (n=6/group), LLC-1 lung carcinoma was implanted into C57BL/6 mice subcutaneously. PLAG was daily administrated for 4 weeks with or without aPD-1 (RMP 1-14. aPD-1 was delivered via IP injection once a week. The degree of infiltrated lymphocyte population and neutrophils in the tumor and blood on the sacrificed day were analyzed (FIG. 12, Table 2).
# PAR2 = PAR2 degradation (western blot, immunoprecipitation, ubiquitination assay); assay type: cell-based; settings: PLAG and neutrophil co-treated cancer cells / cancer tissues
# tumor in Xenograft mice = assay: PLAG alone in Xenograft mice (tumor mass, neutrophil infiltration, chemokines, cell cycle factors by IHC); assay type: in vivo, mouse
# Text: Compared to positive control: *P<0.05, ***P<0.001 (each experiment n=5).
# Compared to positive control: *P<0.05, **P<0.01 (each experiment n=5).
# N.S., not significant. Compared to positive control; #P<0.05, ##P<0.01, ###P<0.001 (each experiment n=5). N.S.′, not significant.
# Compared to positive control: *P<0.05, **P<0.01 (each experiment n=5). N.S., not significant.
# [2] = tested on: neutrophil-activated MDA-MB-231 breast cancer cells; assay: Cell growth and cell cycle activity in neutrophil-activated cancer cells; assay type: cell-based
# Text: Compared to negative control each week: *P<0.05, **P<0.01, ***P<0.001 (each experiment n=5). N.S., not significant. Compared to neutrophil stimulated only group each week: #P<0.05, ##P<0.01, ###P<0.001 (each experiment n=5). N.S.′, not significant.
# [3] = tested on: MB49 murine bladder cancer cells; assay: MB49 bladder cancer syngeneic model, PLAG with or without PD-L1 antibody; assay type: in vivo, C57BL/6 mice
# Text: The syngeneic model was used (n=6) to investigate the enhanced anti-tumor effect of PD-L1 antibody with the addition of PLAG. MB49 murine bladder cancer cells were implanted into the C57BL/6 mice subcutaneously and bred for 5 weeks. After a week from tumor implantation, PLAG at different dosages (50/100 mpk) were daily administered orally for another 4 weeks with or without 5 mpk PD-L1 antibody (10F.9G2). PD-L1 antibody was delivered via IP injection once a week. (FIG. 7, Table 1)
smiles,measurement,setting,value
"CCCCC/C=C\C/C=C\CCCCCCCC(=O)OC(COC(C)=O)COC(=O)CCCCCCCCCCCCCCC (stereo not drawn) [PLAG, 1-palmitoyl-2-linoleoyl-3-acetylglycerol]",tumor tissue on the sacrifice day,[1]; 250 mpk PLAG co-treated with 5/50 AC-regimen,no tumor tissues were found
same,tumor burden compared with AC-regimen alone group,"[1]; PLAG 100 and 250 mpk daily co-treated with 5/50 AC-regimen, p<0.05",significantly decreased in a concentration-dependent manner
same,tumor-infiltrating neutrophil (TIN),"[1]; PLAG added to AC-regimen, IHC",Significantly reduced
same,chemokine expression,"[1]; PLAG added to AC-regimen, chemokine analysis",Significantly reduced
same,chemokine expression,[1]; PLAG alone,reduced
same,tumor growth,[1]; PLAG alone,interruption of tumor growth
same,tumor-infiltrating neutrophil (TIN),[1]; PLAG alone,reduced
same,kind of combined effect on regression of tumor burden,[1]; PLAG co-treated with AC-regimen,synergistic effect
same,tumor burden compared with AC-regimen alone,"[1]; PLAG co-treated with AC-regimen, until sacrifice",smaller tumor burden than that in AC-regimen alone
same,tumor burden compared to positive control,LLC-1 lung carcinoma; PLAG alone 50 and 100 mpk,significantly reduced
same,activity and infiltration of cytotoxic T-Lymphocyte (CTLs) in the tumor compared to aPD-1 alone,LLC-1 lung carcinoma; PLAG co-treated with aPD-1,effectively increased
same,neutrophil to lymphocyte ratio levels compared to aPD-1 alone,LLC-1 lung carcinoma; PLAG co-treated with aPD-1,decreased remarkably
same,population of Th 17 compared to the positive control,LLC-1 lung carcinoma; PLAG co-treated with aPD-1,significant reduction
same,tumor reduction compared to aPD-1 alone,LLC-1 lung carcinoma; PLAG co-treated with aPD-1,18
same,"DAMP (adenosine) originated from tumor, plasma",LLC-1 lung carcinoma; PLAG treatment,rapid removal
same,degree of neutrophil infiltration in the tumor,LLC-1 lung carcinoma; upon PLAG treatment,effectively reduced
same,PAR2 degradation,PAR2,inducing PAR2 degradation
same,expression of neutrophil chemotactic chemokine in cancer tissues,tumor in Xenograft mice,effectively regulate
same,infiltration of neutrophils in cancer tissues,tumor in Xenograft mice,control excessive infiltration of neutrophils
same,cell cycle of cancer tissues / excessive growth,tumor in Xenograft mice; without additional chemotherapeutic agents,regulate excessive growth by inhibiting the cell cycle
same,cell cycle activity,[2]; neutrophil activated cancer cells,inhibitory effect
same,cell growth,"[2]; neutrophil-activated MDA-MB-231 cells, dose-dependent",inhibition of cell growth
same,number of TINs,[3]; PLAG alone,effectively reduced
same,tumor burden compared to positive control,"[3]; PLAG alone 50 and 100 mpk, oral daily, p<0.05",decreased to a significant value
same,growth of the tumor compared to PD-L1 antibody alone,[3]; PLAG and PD-L1 antibody simultaneously,significantly reduced
same,neutrophil-to-lymphocyte ratio (NLR) level compared to PD-L1 antibody alone,"[3]; PLAG and PD-L1 antibody, blood, every two weeks",significantly decreased
same,chemokine secretion,[3]; PLAG treated groups,reduced

# Reference: US20220370397A1, “METHODS AND COMPOSITIONS FOR TREATMENT OF CANCER” (Enzychem Lifesciences Corporation, priority 2019, published 2022)
